This data set is described as follows: Liquid crystal dispersion system formation with changed component (i). Format: physicochemical. The conditions noted are these: component (i): phytosterol 2, cetanol 5, Table 6 component 3, δ-tocopherol 0.1 parts by weight. From the text: The racemic ceramide was obtained by converting a racemic sphinganine obtained by the method by D. Shapiro., et al., (J. Am. Chem. Soc., 80, 2170(1958)) into its stearoyl form.

As for `CCCCCCCCCCCCCCCCCC(=O)NC(CO)C(O)CCCCCCCCCCCCCCC` (racemic) [racemic ceramide], the System morphology result is given as “difficult to form a stable liquid crystal dispersion system”.
